One assay has as its system HTB-58 cells. The assay can be described thus: HTB-58-cell-implanted nude mouse model, tumor growth. The assay is classed as in vivo, nude mice. The note with it: 10 mg/kg FTS i.p. daily. The method, then: Nude mice (6 weeks old) were housed in barrier facilities on a 12-h light/dark cycle. Food and water were supplied ad libitum. On day zero, A549 or HTB-58 cells (5×10^6 cells in 0.1 ml PBS) were implanted subcutaneously (s.c.) just above the right femoral joint. After 5 or 11 days the mice were separated randomly into control groups that had received only the vehicle and FTS-treated groups. Daily FTS treatments were administered either intraperitoneally (i.p.) or orally. Tumor volumes or weights were determined as described in Barkan, B., Starinsky, S., Friedman, E., Stein, R., Kloog, Y., Clin Cancer Res 12:5533-42 (2006). Gemcitabine treatment (36 mg/kg, i.p.) was administered every 4 days.
Tumor volume measured 14 days after cell implantation in that group was 0.02±0.045 cm^3 compared to 0.09±0.08 cm^3 in the vehicle-treated controls (P<0.05).

A further assay has as its system phospho-ERK. The assay can be described thus: Phospho-ERK immunoblotting in A549 cells. Format: cell-based, human. Here is the method:
(§1) A549 cells were incubated for 24 or 48 h with or without FTS, as described above, and then lysed with lysis buffer as described in Haklai, R., Gana-Weisz, M., Elad, G., et al., Biochemistry 37:1306-14 (1998). The apparent amounts of K-Ras-GTP in 0.5 mg protein of total cell lysates were determined by the glutathione-S-transferase (GST)-RBD (Ras-binding domain of Raf) pull-down assay, as described in (Elad-Sfadia, G., Haklai, R., Ballan, E., Gabius, H. J., Kloog, Y., J Biol Chem 277:37169-75 (2002). The apparent amounts of Rac1-GTP and of RhoA-GTP, each in 2 mg protein of total cell lysates, were determined, respectively, by pull-down assays with GST-PBD (Rac1-binding domain of PAK1)-conjugated and GST-Rhotekin BD (Rho-binding domain of Rhotekin)-conjugated beads [Benard, V., Bohl, B. P., Bokoch, G. M, J Biol Chem 274:13198-204 (1999); Fiordalisi, J. J., Keller, P. J., Cox, A. D., Cancer Res 66:3153-61 (2006). […] Levels of phospho-ERK and phospho-Akt were determined by immunoblotting [Haklai, R., Gana-Weisz, M., Elad, G., et al., supra.] using rabbit anti phospho-ERK1/2 Ab (Santa Cruz Biotechnology, Santa Cruz, Calif.) and rabbit anti phospho-Akt Ab (Cell Signaling, Beverly, Mass.). Protein bands were visualized by enhanced chemiluminescence and quantified by densitometry using ImageJ computer software (National institutes of Health, Bethesda, Md.). […]
For orientation: Immunoblotting shows a protein as a band on a membrane.

The next assay relates to phospho-Akt. As to the kind of experiment: Phospho-Akt immunoblotting in A549 cells. Format: cell-based, human. The method, then: as §1
The test system of assay [1] is A549 cells. As to the kind of experiment: Drug combination experiments, live cell counting. The assay is classed as cell-based, human. Particulars: FTS alone 40 μM. Here is the method: In drug combination experiments, cells were grown for 2 days in the absence or in the presence of 40 μM FTS and were then treated for 4 h with gemcitabine (100 or 200 nM), cisplatin (50 or 100 nM), doxorubicin (50 or 100 nM), or paclitaxel (2.5 or 5 nM). Live cells were counted after a further 3 days of incubation with or without FTS. Experiments were performed twice in quadruplicate. To determine whether A549 cells were resistant to apoptosis, an experiment to examine the survival of human lung cancer A549 cells after exposure to a chemotherapeutic agent in the presence of FTS was performed. Thus, to determine whether treatment with FTS can increase the sensitivity of A549 cells to cytotoxic drugs, A549 cells were incubated for 48 h with DMSO (control) or with 40 μM FTS, then for 4 h with gemcitabine, cisplatin, doxorubicin, or paclitaxel at the indicated concentrations. The cells were then washed and incubated for a further 72 h with DMSO or with 40 μM FTS. Live cells were collected and counted. The numbers of cells in the drug-treated cultures, expressed as percentages of the numbers in the vehicle-treated control, are shown in FIGS. 13A-13D. Values are means±SD. *P<0.05, **P<0.01, compared to vehicle-treated control.

Assay [2] has as its system A549 cells. As to the kind of experiment: Anchorage-independent colony formation assay in soft agar. Format: cell-based. The note with it: Homo sapiens, A549, 456 h, 19 days, read-out: inhibition of A549 cell growth in soft agar. The method, then: Noble agar (2% and 0.6%; Difco, Detroit, Mich.) was prepared in water and autoclaved. The 2% agar was melted in a microwave oven, mixed 1:1 with medium (×2 Kaighn's modification of Ham's F-12 medium with 20% FCS, 100 U/ml penicillin, and 0.1 mg/ml streptomycin) and poured onto 96-well plates (50 μl per well) to provide the 1% base agar. The 0.6% agar (5 ml) was mixed with 5 ml of medium (×2), containing 8×10^4 A549 cells, and the mixture (50 μl) was plated on top of the base agar. The cells were incubated for 19 days at 37° C. with or without the indicated concentrations of FTS (6 wells for the control and for each treatment) and colonies were stained with MTT (1 mg/ml for 4 h). The colonies were then visualized by light microscopy, imaged, and counted using the ImagePro software. Next, to determine the effect of FTS on the anchorage-independent growth of A549 cells, a soft agar assay was performed. The cells were seeded in soft agar and treated with increasing concentrations of FTS 0 μM, 50 μM and 100 μM (FIGS. 12A-12B). Control cells were treated with 0.1% Me2SO4 (DMSO). FTS inhibited A549 cell growth in soft agar by 27±5.5% and 58±21% at 50 μM and 100 μM FTS, respectively. Thus, FTS inhibited the anchorage-independent growth of A549 cells.

A further assay addresses T1, K-Ras-GTP (Homo sapiens, UniProt P01116, G12S).
T1 construct: endogenous in cells; host or cells: A549 (ATCC)
The assay can be described thus: K-Ras-GTP GST-RBD pull-down assay and immunoblotting in A549 cells. The assay is classed as cell-based. The method, then:
A549 cells were incubated for 24 or 48 h with or without FTS, as described above, and then lysed with lysis buffer as described in Haklai, R., Gana-Weisz, M., Elad, G., et al., Biochemistry 37:1306-14 (1998). The apparent amounts of K-Ras-GTP in 0.5 mg protein of total cell lysates were determined by the glutathione-S-transferase (GST)-RBD (Ras-binding domain of Raf) pull-down assay, as described in (Elad-Sfadia, G., Haklai, R., Ballan, E., Gabius, H. J., Kloog, Y., J Biol Chem 277:37169-75 (2002). The apparent amounts of Rac1-GTP and of RhoA-GTP, each in 2 mg protein of total cell lysates, were determined, respectively, by pull-down assays with GST-PBD (Rac1-binding domain of PAK1)-conjugated and GST-Rhotekin BD (Rho-binding domain of Rhotekin)-conjugated beads [Benard, V., Bohl, B. P., Bokoch, G. M, J Biol Chem 274:13198-204 (1999); Fiordalisi, J. J., Keller, P. J., Cox, A. D., Cancer Res 66:3153-61 (2006). The pulled-down GTPases were subjected to SDS-PAGE followed by immunoblotting with the appropriate antibodies: anti K-Ras (1:30; Calbiochem, La Jolla, Calif.), anti Rac-1 (1:2500; Santa Cruz Biotechnology, Santa Cruz, Calif.), or anti RhoA (1:700; Upstate Biotechnology, Lake Placid, N.Y.). Immunoblots were exposed to 1:2500 peroxidase-goat anti-mouse IgG. Levels of phospho-ERK and phospho-Akt were determined by immunoblotting [Haklai, R., Gana-Weisz, M., Elad, G., et al., supra.] using rabbit anti phospho-ERK1/2 Ab (Santa Cruz Biotechnology, Santa Cruz, Calif.) and rabbit anti phospho-Akt Ab (Cell Signaling, Beverly, Mass.). Protein bands were visualized by enhanced chemiluminescence and quantified by densitometry using ImageJ computer software (National institutes of Health, Bethesda, Md.).
To determine whether active K-Ras-GTP and its prominent downstream signals to ERK and Akt were inhibited in A549 cells, and if so, whether the […] growth of the cells was also affected, two experiments were performed. First, A549 cells were incubated in the absence and in the presence of various concentrations of FTS and K-Ras-GTP, phospho-ERK and phospho-Akt levels were measured.

One may read the inhibition as the relative decrease from the control value, in per cent.

T1 sequence (P01116 whole entry G12S): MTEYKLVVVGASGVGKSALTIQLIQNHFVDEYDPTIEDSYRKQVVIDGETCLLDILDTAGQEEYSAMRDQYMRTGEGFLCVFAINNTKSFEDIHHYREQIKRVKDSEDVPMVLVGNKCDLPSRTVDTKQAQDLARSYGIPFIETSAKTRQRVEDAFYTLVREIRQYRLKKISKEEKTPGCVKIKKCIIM

For `CC(C)=CCC/C(C)=C/CC/C(C)=C/CSc1ccccc1C(=O)O` [FTS, S-farnesylthiosalicylic acid], the “inhibition of tumor growth” value in the assay with HTB-58 cells was determined as 76.4±48.8%. The compound further showed a tumor volume with HTB-58 cells (14 days after cell implantation) of 0.02±0.045 cm^3. Also, the “inhibition of phospho-ERK level” value in the assay on phospho-ERK amounted to 33±2%. Further, the “inhibition of phospho-Akt level” value with phospho-Akt was found to be 58±6%. The “reduction in cell numbers (mean±SD)” value is recorded as 33±9.5% in the assay on A549 cells [1] (cisplatin experiment (FIG. 13C)) and 25±6.3% in the assay with A549 cells [1] (gemcitabine experiment (FIG. 13A)). Also, in the assay on A549 cells [2] (50 μM FTS), the inhibition at 50 µM is 27 ± 5.5%. Besides, in the assay on A549 cells [2] (100 μM FTS), the inhibition at 100 µM turned out to be 58 ± 21%. In addition, the results for the “reduction in K-Ras-GTP (mean±SD)” value on K-Ras-GTP (25 μM FTS), on K-Ras-GTP (50 μM FTS) and on K-Ras-GTP (75 μM FTS) were 23±15.3%, 37±3.7% and 46±1.9%, respectively. For the same compound, at K-Ras-GTP (A549 cells), the “effective concentration range for the reduction in K-Ras-GTP” value fell in the range of 50 to 75 µM. Further, at K-Ras-GTP (A549 cells, various FTS concentrations), the “effect on the total amount of Ras” value is recorded as “no significant effect”.

The record behind these values is US8232253B2, “Treatment of lung cancer” (Ramot at Tel-Aviv University Ltd., priority 2006, dated 2012).
